Drawing on paper PMC10179972, “New Hybrid Tetrahydropyrrolo[3,2,1-ij]quinolin-1-ylidene-2-thioxothiazolidin-4-ones as New Inhibitors of Factor Xa and Factor XIa: Design, Synthesis, and In Silico and Experimental Evaluation” (Molecules, 2023), this text covers inhibition and IC50 for 18 compounds.

The target of one assay is factor XIa (Homo sapiens, UniProt P03951). Nature of the assay: Inhibition of factor XIa, kinetics of hydrolysis of chromogenic substrate S2366. In kind it is biochemical. To be noted: for inhibition at 30 µM: 30 μM compound, factor XIa 0.8 nmol/L, S2366 200 μmol/L, pH 8.0, read-out: Percent Inhibition at 30 μM, XIa; for IC50: substrate S2366, buffer solution. As for the experimental part:
Compounds 12, 14 and 16 were evaluated for their anticoagulant activity against factors Xa and Xia, and the results are presented in Table 1. For the best Xa and XIa inhibitors, additional measurements were performed to determine the IC50 values. We measured the kinetics of the hydrolysis of the specific substrates S2765 or S2366 by factors Xa and XIa, respectively, in the buffer solution and in the presence of various concentrations of compounds.
(§1) A specific low-molecular-weight chromogenic substrate, S2765 (Z-D-Arg-Gly-Arg-pNA·2HCl), was used in the case of factor Xa, while the substrate S2366 (pyroGlu-Pro-ArgpNA·HCl) (both substrates from Chromogenix, USA) was used for factor XIa.
(§2) A buffer containing 140 mM NaCl, 20 mM HEPES, and 0.1% PEG 6000 (pH 8.0) was placed in the wells of a 96-well plate, followed by the addition of factor Xa (final concentration, 2.5 nmol·L^–1) or XIa (final concentration 0.8 nmol·L^–1), the substrate S2765 (final concentration, 200 μmol·L^–1) or S2366 (final concentration, 200 μmol·L^–1), and a solution of the test compound in DMSO (final concentration, 30 μmol·L^–1; the DMSO content in the well was no more than 2%). The kinetics of the formation of p-nitroaniline were measured using a THERMOmax Microplate Reader (Molecular Devices Corporation, USA) using the absorption of light with a wavelength of 405 nm. The initial rate of substrate degradation was determined from the initial slope of the 4-nitroaniline-formation curve. The rate of substrate degradation by the enzyme in the presence of the inhibitor was expressed as a percentage relative to the rate of substrate degradation in the absence of the inhibitor. The data obtained were processed using GraphPad Prism and OriginPro 8 software.

The target of another assay is T1, factor Xa (Homo sapiens, UniProt P00742).
T1 construct: followed by the addition of factor Xa (final concentration, 2.5 nmol·L^–1)
T1 sequence (P00742 235-488 limits assumed): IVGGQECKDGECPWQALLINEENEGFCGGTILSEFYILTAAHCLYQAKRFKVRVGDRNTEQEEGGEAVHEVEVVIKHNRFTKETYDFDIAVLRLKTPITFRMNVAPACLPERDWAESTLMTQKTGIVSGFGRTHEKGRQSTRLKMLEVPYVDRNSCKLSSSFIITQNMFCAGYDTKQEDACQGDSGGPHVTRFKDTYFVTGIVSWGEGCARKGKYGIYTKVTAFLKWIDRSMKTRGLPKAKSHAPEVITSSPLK
T1 sequence (P00742 41-179 partner limits assumed): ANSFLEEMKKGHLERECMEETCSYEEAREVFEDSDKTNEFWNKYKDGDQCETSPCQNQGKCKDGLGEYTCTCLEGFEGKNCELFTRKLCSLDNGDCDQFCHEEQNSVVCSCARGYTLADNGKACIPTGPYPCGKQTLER
Nature of the assay: Inhibition of factor Xa, kinetics of hydrolysis of chromogenic substrate S2765. In kind it is biochemical. The following applies: for inhibition at 30 µM: 30 μM compound, factor Xa 2.5 nmol/L, S2765 200 μmol/L, pH 8.0, read-out: Percent Inhibition at 30 μM, Xa; for IC50: substrate S2765, buffer solution. On the procedure: We measured the kinetics of the hydrolysis of the specific substrates S2765 or S2366 by factors Xa and XIa, respectively, in the buffer solution and in the presence of various concentrations of compounds.
as §1
as §2, with “The kinetics of the formation of p-nitroaniline were measured using a THERMOmax Microplate Reader (Molecular Devices Corporation, USA) using the absorption of light with a wavelength of 405 nm.” left out

Chain of factor XIa (P03951 388-625 limits assumed): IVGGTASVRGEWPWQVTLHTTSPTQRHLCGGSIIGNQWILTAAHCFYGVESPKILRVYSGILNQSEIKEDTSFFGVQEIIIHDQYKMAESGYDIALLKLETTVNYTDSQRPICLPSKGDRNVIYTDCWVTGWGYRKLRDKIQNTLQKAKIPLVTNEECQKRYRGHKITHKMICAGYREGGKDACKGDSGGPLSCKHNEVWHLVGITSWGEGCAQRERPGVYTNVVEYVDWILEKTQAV
Chain of factor XIa (P03951 19-387 partner limits assumed): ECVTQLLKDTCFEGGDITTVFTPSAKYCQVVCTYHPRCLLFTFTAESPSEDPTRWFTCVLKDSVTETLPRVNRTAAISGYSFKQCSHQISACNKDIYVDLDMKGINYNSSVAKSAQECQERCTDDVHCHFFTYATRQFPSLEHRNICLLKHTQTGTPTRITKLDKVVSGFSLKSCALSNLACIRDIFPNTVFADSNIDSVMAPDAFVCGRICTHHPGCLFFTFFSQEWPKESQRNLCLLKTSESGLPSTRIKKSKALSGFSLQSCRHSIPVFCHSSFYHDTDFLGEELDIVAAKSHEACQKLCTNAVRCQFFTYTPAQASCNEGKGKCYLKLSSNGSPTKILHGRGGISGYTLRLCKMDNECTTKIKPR

Take `CC1CC(C)(C)N2C(=O)/C(=C3\SC(=S)NC3=O)c3cccc1c32` (centres unmarked) [12a, (Z)-2-Thioxo-5-(4,4,6-trimethyl-2-oxo-5,6-dihydro-4H-pyrrolo[3,2,1-ij]quinolin-1(2H)-ylidene)thiazolidin-4-one]: the inhibition at 30 µM at factor XIa was determined as 22%. In addition, at factor Xa, the inhibition at 30 µM is 94% and it took 9.41 ± 0.35 µM to reach half-maximal inhibition (IC50).
`CC1CC(C)(C)N2C(=O)/C(=C3\SC(=S)NC3=O)c3cc(I)cc1c32` (centres unmarked) [12b, (Z)-5-(8-Iodo-4,4,6-trimethyl-2-oxo-5,6-dihydro-4H-pyrrolo[3,2,1-ij]quinolin-1(2H)-ylidene)-2-thioxothiazolidin-4-one]: the inhibition at 30 µM on factor XIa worked out at 12%. At factor Xa, the inhibition at 30 µM was determined as 81% and half-maximal inhibition (IC50) was put at 3.53 ± 0.08 µM.
Take `CC1CC(C)(C)N2C(=O)/C(=C3\SC(=S)NC3=O)c3cc(OC(=O)c4ccccc4)cc1c32` (centres unmarked) [12c, (Z)-4,4,6-Trimethyl-2-oxo-1-(4-oxo-2-thioxothiazolidin-5-ylidene)-1,2,5,6-tetrahydro-4H-pyrrolo[3,2,1-ij]quinolin-8-yl benzoate]: the values for the inhibition at 30 µM at factor XIa and on factor Xa were 72% and 58%, respectively.
In the case of `COc1ccccc1C(=O)Oc1cc2c3c(c1)C(C)CC(C)(C)N3C(=O)/C2=C1\SC(=S)NC1=O` (centres unmarked) [12d, (Z)-4,4,6-Trimethyl-2-oxo-1-(4-oxo-2-thioxothiazolidin-5-ylidene)-1,2,5,6-tetrahydro-4H-pyrrolo[3,2,1-ij]quinolin-8-yl 2-methoxybenzoate], at factor XIa, the inhibition at 30 µM came out at 98% and the IC50 was 3.79 ± 0.03 µM. Further, on factor Xa, the inhibition at 30 µM was 63% and the IC50 came out at 2.35 ± 0.22 µM.
`COc1cc(C(=O)Oc2cc3c4c(c2)C(C)CC(C)(C)N4C(=O)/C3=C2\SC(=S)NC2=O)cc(OC)c1OC` (centres unmarked) [12e, (Z)-4,4,6-Trimethyl-2-oxo-1-(4-oxo-2-thioxothiazolidin-5-ylidene)-1,2,5,6-tetrahydro-4H-pyrrolo[3,2,1-ij]quinolin-8-yl 3,4,5-trimethoxybenzoate]: the inhibition at 30 µM is 94% on factor XIa and 49% on factor Xa. This compound also registered an IC50 against factor XIa of 3.74 ± 0.33 µM.
In the case of `CCN1C(=O)/C(=C2/C(=O)N3c4c2cc(OC)cc4C(C)CC3(C)C)SC1=S` (centres unmarked) [12f, (Z)-3-Ethyl-5-(8-methoxy-4,4,6-trimethyl-2-oxo-5,6-dihydro-4H-pyrrolo[3,2,1-ij]quinolin-1(2H)-ylidene)-2-thioxothiazolidin-4-one], the figures for the inhibition at 30 µM at factor XIa and at factor Xa were 5% and 18%, respectively.
Consider `CC1(c2ccccc2)CC(C)(C)N2C(=O)/C(=C3\SC(=S)NC3=O)c3cc(F)cc1c32` (centres unmarked) [12g, (Z)-5-(8-Fluoro-4,4,6-trimethyl-2-oxo-6-phenyl-5,6-dihydro-4H-pyrrolo[3,2,1-ij]quinolin-1(2H)-ylidene)-2-thioxothiazolidin-4-one], for which the values for the inhibition at 30 µM on factor XIa and at factor Xa were 98% and 99%, respectively. The IC50 at factor XIa worked out at 5.03 ± 0.18 µM; against factor Xa, 3.7 ± 0.03 µM.
Consider `CC1(c2ccccc2)CC(C)(C)N2C(=O)/C(=C3\SC(=S)NC3=O)c3cc(Br)cc1c32` (centres unmarked) [12h, (Z)-5-(8-Bromo-4,4,6-trimethyl-2-oxo-6-phenyl-5,6-dihydro-4H-pyrrolo[3,2,1-ij]quinolin-1(2H)-ylidene)-2-thioxothiazolidin-4-one], for which, on factor XIa, the inhibition at 30 µM came to 98% and the half-maximal inhibitory concentration (IC50) worked out at 3.73 ± 0.03 µM. Besides, on factor Xa, the inhibition at 30 µM stood at 73% and the IC50 was found to be 2.28 ± 0.23 µM.
`CC1(c2ccccc2)CC(C)(C)N2C(=O)/C(=C3\SC(=S)NC3=O)c3cc(I)cc1c32` (centres unmarked) [12i, (Z)-5-(8-Iodo-4,4,6-trimethyl-2-oxo-6-phenyl-5,6-dihydro-4H-pyrrolo[3,2,1-ij]quinolin-1(2H)-ylidene)-2-thioxothiazolidin-4-one]: on factor XIa, the inhibition at 30 µM is 96% and 5.04 ± 0.33 µM corresponded to half-maximal inhibition (IC50). Besides, at factor Xa, the inhibition at 30 µM is 75% and the IC50 is 3.44 ± 0.06 µM.
For `CCN1C(=O)/C(=C2/C(=O)N3c4c2cccc4C(C)(c2ccccc2)CC3(C)C)SC1=S` (centres unmarked) [12j, (Z)-3-Ethyl-2-thioxo-5-(4,4,6-trimethyl-2-oxo-6-phenyl-5,6-dihydro-4H-pyrrolo[3,2,1-ij]quinolin-1(2H)-ylidene)thiazolidin-4-one], the inhibition at 30 µM at factor XIa was 77%; at factor Xa, 89%.
Regarding `CC1(c2ccc(Cl)cc2)CC(C)(C)N2C(=O)/C(=C3\SC(=S)NC3=O)c3cc(F)cc1c32` (centres unmarked) [12k, (Z)-5-(6-(4-Chlorophenyl)-8-fluoro-4,4,6-trimethyl-2-oxo-5,6-dihydro-4H-pyrrolo[3,2,1-ij]quinolin-1(2H)-ylidene)-2-thioxothiazolidin-4-one], on factor XIa, the inhibition at 30 µM was found to be 99% and the IC50 came out at 5.24 ± 0.29 µM. In addition, on factor Xa, the inhibition at 30 µM was 99% and the IC50 was 2.85 ± 0.23 µM.
For the compound `CC1(c2ccc(Cl)cc2)CC(C)(C)N2C(=O)/C(=C3\SC(=S)NC3=O)c3cc(I)cc1c32` (centres unmarked) [12l, (Z)-5-(6-(4-Chlorophenyl)-8-iodo-4,4,6-trimethyl-2-oxo-5,6-dihydro-4H-pyrrolo[3,2,1-ij]quinolin-1(2H)-ylidene)-2-thioxothiazolidin-4-one], at factor XIa, the inhibition at 30 µM was determined as 95% and the IC50 amounted to 4.3 ± 0.06 µM. For the same compound, at factor Xa, the inhibition at 30 µM came to 78% and the IC50 was 2.87 ± 0.21 µM.
Regarding `CCN1C(=O)/C(=C2/C(=O)N3c4c2cc(F)cc4C(C)(c2ccc(Cl)cc2)CC3(C)C)SC1=S` (centres unmarked) [12m, (Z)-5-(6-(4-Chlorophenyl)-8-fluoro-4,4,6-trimethyl-2-oxo-5,6-dihydro-4H-pyrrolo[3,2,1-ij]quinolin-1(2H)-ylidene)-3-ethyl-2-thioxothiazolidin-4-one], the inhibition at 30 µM was 0% on factor XIa and 18% on factor Xa.
Take `CC1(C)CC2(CCCCC2)N2C(=O)/C(=C3\SC(=S)NC3=O)c3cccc1c32` [12n, (Z)-5-(6′,6′-Dimethyl-2′-oxo-5′,6′-dihydrospiro[cyclohexane-1,4′-pyrrolo[3,2,1-ij]quinolin]-1′(2′H)-ylidene)-2-thioxothiazolidin-4-one]: at factor XIa, the inhibition at 30 µM was determined as 91% and the IC50 worked out at 9.41 ± 0.51 µM. At factor Xa, the inhibition at 30 µM was 94% and half-maximal inhibition (IC50) was put at 2.6 ± 0.5 µM.
In the case of `Cc1cc2c3c(c1)C(C)CC1(CCCCC1)N3C(=O)/C2=C1\SC(=S)NC1=O` (centres unmarked) [12o, (Z)-5-(6′,8′-Dimethyl-2′-oxo-5′,6′-dihydrospiro[cyclohexane-1,4′-pyrrolo[3,2,1-ij]quinolin]-1′(2′H)-ylidene)-2-thioxothiazolidin-4-one], the results for the inhibition at 30 µM at factor XIa and on factor Xa were 15% and 48%, respectively.
`CC1CC2(CCCC2)N2C(=O)/C(=C3\SC(=S)NC3=O)c3cc(F)cc1c32` (centres unmarked) [12p, (Z)-5-(8′-Fluoro-6′-methyl-2′-oxo-5′,6′-dihydrospiro[cyclopentane-1,4′-pyrrolo[3,2,1-ij]quinolin]-1′(2′H)-ylidene)-2-thioxothiazolidin-4-one]: the values for the inhibition at 30 µM at factor XIa and on factor Xa were 77% and 67%, respectively. Further, the IC50 is 12.2 ± 0.5 µM against factor XIa and 3.03 ± 0.18 µM on factor Xa.
Take `CC1CC2(CCCCCC2)N2C(=O)/C(=C3\SC(=S)NC3=O)c3cc(F)cc1c32` (centres unmarked) [12q, (Z)-5-(8′-Fluoro-6′-methyl-2′-oxo-5′,6′-dihydrospiro[cycloheptane-1,4′-pyrrolo[3,2,1-ij]quinolin]-1′(2′H)-ylidene)-2-thioxothiazolidin-4-one]: at factor XIa, the inhibition at 30 µM was 91% and the IC50 came to 4.32 ± 0.06 µM. At factor Xa, the inhibition at 30 µM was 47%.
Turning to `C#CCN1C(=O)/C(=C2/C(=O)N3c4c2cc(F)cc4C(C)(c2ccccc2)CC3(C)C)SC1=S` (centres unmarked) [14a, (Z)-5-(8-Fluoro-4,4,6-trimethyl-2-oxo-6-phenyl-5,6-dihydro-4H-pyrrolo[3,2,1-ij]quinolin-1(2H)-ylidene)-3-(prop-2-yn-1-yl)-2-thioxothiazolidin-4-one], the inhibition at 30 µM at factor XIa was found to be 3%; at factor Xa, 36%.

The term inhibition denotes how much of the control response was suppressed. By IC50 is commonly meant the point on the concentration scale where inhibition reaches its midpoint. Low values mean greater potency in that assay, high ones weaker potency in that assay.
